Laboratory results from US8735584B2 (Merck Patent GmbH, priority 2008, dated 2014).

What was measured:
Format in all cases: biochemical
AurA = molecular target: T1, AurA (Homo sapiens, UniProt O14965); experiment: Desktop Profiler kinase panel, AurA; conditions: 10 micromolar concentration of the compound; read-out: Percent Inhibition AurA
T1 construct: purchased Caliper Life Sciences
T1 sequence (O14965 1-403): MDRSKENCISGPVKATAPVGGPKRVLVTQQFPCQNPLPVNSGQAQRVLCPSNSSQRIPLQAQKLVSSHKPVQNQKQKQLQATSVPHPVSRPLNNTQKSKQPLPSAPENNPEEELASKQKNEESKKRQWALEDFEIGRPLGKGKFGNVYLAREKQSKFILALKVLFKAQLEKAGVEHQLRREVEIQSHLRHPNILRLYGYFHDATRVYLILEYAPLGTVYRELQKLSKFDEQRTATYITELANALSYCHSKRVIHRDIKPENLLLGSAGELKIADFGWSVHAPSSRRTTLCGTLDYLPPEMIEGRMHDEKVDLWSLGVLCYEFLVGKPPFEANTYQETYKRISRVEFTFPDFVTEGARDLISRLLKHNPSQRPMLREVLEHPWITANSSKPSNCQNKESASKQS
Protocol: (§1) The Aurora assays described here are performed on two Caliper Life Sciences systems: the LC3000 and the Desktop Profiler. These provide data on enzyme activity via measurement of the relative amounts of phosphorylated or unphosphorylated fluorescently labelled substrate peptide at the end of an enzymatic reaction. These different states of peptide are resolved by applying a potential difference across the sample. The presence of the charged phosphate group on the product (as opposed to the substrate) causes a different peptide mobility between the two peptides. This is visualized by excitation of the fluorescent label on the substrate and product peptides and represented as peaks within the analysis software.
(§2) The Desktop Profiler utilizes the same principle as the LC3000 for calculating percentage conversion of a substrate to product. Caliper Life Sciences provides proprietary flash frozen pre-made 384 well plates containing selected kinases. Each column in the 384 well plate contains a particular selected kinase. A second plate, the ‘substrate plate’ contains a mix of fluorescently labeled peptide substrate and ATP. These are arranged in columns so that transfer for substrate plate to enzyme plate provides the correct enzyme with the correct substrate/ATP concentration. Compounds are added to a thawed enzyme plate in the desired format, in single concentrations. Reactions are initiated by transfer of the substrate/ATP mix from the substrate plate. The enzyme plate is incubated for 90 mins at 25 C. The reaction is stopped by addition of 70 ul of Stop Buffer (100 mM HEPES pH 7.5, 0.015% Brij-35, 10 mM EDTA (Sigma, E7889)).
(§3) Reading of the plate in the Profiler is identical to the LC3000, and the ratio between substrate and product peaks provides the activity of the enzyme in that well. This is best represented by a plate heat map which colors each well by percent inhibition as compared to positive and negative controls (no inhibitors and no ATP respectively).
(§4) In the following Tables 3a-4-b, which show the results of the desktop profiler measurements, “+” means 50-70% inhibition, “++” means 70-90% inhibition, and “+++” means >90% inhibition. The enzymes tested for profiling were ABL, AKT1, AKT2, AurA, CHK1, CHK2, CK1d, Erk1, Erk2, FYN, GSK3b, INSR, LCK, LYN, MAPKAPK2, MET, MSK1, p38a, PKA, PKCz, PKD2, PRAK, RSK1 and SRC.

AKT2 = molecular target: T2, AKT2 (Homo sapiens, UniProt P31751); experiment: Desktop Profiler kinase panel, AKT2; conditions: 10 micromolar concentration of the compound; read-out: Percent Inhibition AKT2
T2 construct: purchased Caliper Life Sciences
T2 sequence (P31751 whole entry, species assumed): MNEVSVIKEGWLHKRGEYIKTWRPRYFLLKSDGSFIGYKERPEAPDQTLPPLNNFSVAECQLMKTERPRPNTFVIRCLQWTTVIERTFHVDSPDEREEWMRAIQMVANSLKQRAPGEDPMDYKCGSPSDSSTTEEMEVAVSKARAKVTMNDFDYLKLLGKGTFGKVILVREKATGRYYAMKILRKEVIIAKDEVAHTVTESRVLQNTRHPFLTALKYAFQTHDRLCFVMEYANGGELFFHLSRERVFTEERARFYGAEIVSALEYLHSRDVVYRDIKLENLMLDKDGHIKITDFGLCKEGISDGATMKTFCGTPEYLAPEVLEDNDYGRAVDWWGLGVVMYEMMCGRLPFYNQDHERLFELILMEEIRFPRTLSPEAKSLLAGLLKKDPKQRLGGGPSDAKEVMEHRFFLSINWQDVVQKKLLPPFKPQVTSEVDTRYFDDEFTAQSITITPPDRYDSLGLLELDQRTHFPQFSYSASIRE
Protocol: as §1, §2, §3, §4

CHK2 = molecular target: T3, CHK2 (Homo sapiens, UniProt O96017); experiment: Desktop Profiler kinase panel, CHK2; conditions: 10 micromolar concentration of the compound; read-out: Percent Inhibition CHK2
T3 construct: purchased Caliper Life Sciences
T3 sequence (O96017 whole entry, species assumed): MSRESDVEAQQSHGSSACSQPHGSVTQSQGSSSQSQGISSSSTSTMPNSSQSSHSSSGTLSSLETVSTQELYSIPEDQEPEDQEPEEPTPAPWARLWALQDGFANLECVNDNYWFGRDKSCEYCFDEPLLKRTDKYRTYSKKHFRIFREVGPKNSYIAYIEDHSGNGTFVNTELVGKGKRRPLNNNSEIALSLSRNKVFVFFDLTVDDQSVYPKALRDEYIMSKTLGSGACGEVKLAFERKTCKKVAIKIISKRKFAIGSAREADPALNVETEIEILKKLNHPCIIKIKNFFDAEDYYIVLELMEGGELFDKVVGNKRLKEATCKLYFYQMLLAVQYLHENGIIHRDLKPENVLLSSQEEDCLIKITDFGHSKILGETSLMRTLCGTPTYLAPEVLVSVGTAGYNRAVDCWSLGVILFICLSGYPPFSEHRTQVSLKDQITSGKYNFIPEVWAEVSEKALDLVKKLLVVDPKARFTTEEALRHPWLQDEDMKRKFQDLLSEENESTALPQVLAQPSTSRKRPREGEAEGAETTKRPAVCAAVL
Protocol: as §1, §2, §3, §4

ABL = molecular target: T4, ABL (Homo sapiens, UniProt P00519); experiment: Desktop Profiler kinase panel, ABL; conditions: 10 micromolar concentration of the compound; read-out: Percent Inhibition ABL
T4 construct: purchased Caliper Life Sciences
T4 sequence (P00519 whole entry, species assumed): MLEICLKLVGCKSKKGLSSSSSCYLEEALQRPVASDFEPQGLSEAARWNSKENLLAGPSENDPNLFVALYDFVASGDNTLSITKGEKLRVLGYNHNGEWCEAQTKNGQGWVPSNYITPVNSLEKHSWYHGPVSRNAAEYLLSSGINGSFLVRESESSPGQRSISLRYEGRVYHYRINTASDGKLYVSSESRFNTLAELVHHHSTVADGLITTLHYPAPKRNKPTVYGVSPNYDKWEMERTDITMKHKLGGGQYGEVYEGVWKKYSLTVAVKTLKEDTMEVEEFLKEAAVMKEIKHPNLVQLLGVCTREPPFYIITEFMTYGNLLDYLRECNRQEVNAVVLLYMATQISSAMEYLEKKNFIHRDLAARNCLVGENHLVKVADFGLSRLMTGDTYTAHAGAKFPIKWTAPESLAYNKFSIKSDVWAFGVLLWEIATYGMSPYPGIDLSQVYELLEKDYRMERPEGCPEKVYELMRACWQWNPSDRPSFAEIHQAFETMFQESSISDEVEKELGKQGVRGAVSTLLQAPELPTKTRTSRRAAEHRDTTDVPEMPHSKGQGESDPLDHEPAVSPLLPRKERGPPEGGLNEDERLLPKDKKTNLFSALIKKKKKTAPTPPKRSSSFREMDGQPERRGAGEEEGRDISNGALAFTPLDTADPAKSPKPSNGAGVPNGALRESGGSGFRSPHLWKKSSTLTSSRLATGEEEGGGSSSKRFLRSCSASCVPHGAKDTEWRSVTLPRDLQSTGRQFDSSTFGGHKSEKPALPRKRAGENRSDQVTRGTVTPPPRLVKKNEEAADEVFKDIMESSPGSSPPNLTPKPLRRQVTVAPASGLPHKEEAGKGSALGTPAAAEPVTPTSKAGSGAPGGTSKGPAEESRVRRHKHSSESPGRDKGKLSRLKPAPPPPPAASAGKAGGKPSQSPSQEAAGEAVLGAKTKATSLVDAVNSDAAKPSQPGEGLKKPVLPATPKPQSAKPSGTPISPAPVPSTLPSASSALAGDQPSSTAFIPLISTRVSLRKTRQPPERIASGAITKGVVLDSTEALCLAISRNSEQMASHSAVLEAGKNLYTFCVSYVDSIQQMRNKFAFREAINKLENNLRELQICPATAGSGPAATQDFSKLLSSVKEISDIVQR
Protocol: as §1, §2, §3, §4

CK1d = molecular target: T5, CK1d (Homo sapiens, UniProt P48730); experiment: Desktop Profiler kinase panel, CK1d; conditions: 10 micromolar concentration of the compound; read-out: Percent Inhibition CK1d
T5 construct: purchased Caliper Life Sciences
T5 sequence (P48730 whole entry): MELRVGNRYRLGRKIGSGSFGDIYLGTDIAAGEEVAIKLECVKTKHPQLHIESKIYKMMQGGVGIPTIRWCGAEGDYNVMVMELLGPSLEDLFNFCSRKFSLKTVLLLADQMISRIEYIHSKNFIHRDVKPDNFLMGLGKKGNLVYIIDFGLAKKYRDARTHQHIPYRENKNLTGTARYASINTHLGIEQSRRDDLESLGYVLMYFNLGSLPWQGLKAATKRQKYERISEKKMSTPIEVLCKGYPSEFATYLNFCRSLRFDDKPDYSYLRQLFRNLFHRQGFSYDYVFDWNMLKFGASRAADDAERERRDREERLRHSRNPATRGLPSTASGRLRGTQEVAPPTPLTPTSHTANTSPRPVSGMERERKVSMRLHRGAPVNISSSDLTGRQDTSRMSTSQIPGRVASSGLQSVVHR
Protocol: as §1, §2, §3, §4

PKD2 = molecular target: T6, PKD2 (Homo sapiens, UniProt Q9BZL6); experiment: Desktop Profiler kinase panel, PKD2; conditions: 10 micromolar concentration of the compound; read-out: Percent Inhibition PKD2
T6 construct: purchased Caliper Life Sciences
T6 sequence (Q9BZL6 1-878): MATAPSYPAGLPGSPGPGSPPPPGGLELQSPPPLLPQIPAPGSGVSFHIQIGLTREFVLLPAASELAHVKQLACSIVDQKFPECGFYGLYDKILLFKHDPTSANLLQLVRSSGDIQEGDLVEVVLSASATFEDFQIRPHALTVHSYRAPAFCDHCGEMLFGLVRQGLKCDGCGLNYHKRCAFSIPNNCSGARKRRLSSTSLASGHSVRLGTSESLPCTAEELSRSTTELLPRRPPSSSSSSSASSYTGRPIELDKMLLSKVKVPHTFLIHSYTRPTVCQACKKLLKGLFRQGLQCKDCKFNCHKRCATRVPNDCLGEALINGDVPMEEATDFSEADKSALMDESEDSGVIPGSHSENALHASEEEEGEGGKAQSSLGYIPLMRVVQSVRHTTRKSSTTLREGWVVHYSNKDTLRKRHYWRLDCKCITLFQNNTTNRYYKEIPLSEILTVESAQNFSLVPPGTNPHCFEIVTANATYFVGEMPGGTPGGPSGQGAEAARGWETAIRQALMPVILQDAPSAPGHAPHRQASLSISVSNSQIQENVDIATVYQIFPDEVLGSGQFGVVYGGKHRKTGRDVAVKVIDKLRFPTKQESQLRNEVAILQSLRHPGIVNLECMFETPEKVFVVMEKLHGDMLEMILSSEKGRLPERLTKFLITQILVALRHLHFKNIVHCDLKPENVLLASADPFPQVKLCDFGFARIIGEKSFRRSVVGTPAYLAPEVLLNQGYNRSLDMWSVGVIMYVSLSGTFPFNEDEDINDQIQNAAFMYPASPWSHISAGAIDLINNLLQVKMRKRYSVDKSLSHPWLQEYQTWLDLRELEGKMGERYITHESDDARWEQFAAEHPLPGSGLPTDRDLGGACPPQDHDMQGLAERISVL
Protocol: as §1, §2, §3, §4

FYN = molecular target: T7, FYN (Homo sapiens, UniProt P06241); experiment: Desktop Profiler kinase panel, FYN; conditions: 10 micromolar concentration of the compound; read-out: Percent Inhibition FYN
T7 construct: purchased Caliper Life Sciences
T7 sequence (P06241 whole entry, species assumed): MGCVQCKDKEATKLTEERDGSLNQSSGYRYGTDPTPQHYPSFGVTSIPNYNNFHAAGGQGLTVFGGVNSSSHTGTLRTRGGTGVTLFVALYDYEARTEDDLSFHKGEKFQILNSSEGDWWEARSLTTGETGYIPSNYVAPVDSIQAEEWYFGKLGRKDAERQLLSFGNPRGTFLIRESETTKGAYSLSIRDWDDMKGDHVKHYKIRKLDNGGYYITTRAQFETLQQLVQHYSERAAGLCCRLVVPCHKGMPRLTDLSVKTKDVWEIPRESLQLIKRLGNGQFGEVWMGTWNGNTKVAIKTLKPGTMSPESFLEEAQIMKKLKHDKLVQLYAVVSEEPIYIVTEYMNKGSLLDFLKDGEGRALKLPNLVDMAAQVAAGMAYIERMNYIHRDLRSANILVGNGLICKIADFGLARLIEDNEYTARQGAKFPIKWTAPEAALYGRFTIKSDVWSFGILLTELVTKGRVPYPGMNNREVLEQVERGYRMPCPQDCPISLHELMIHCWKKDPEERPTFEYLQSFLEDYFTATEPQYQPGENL
Protocol: as §1, §2, §3, §4

SRC = molecular target: T8, SRC (Homo sapiens, UniProt P12931); experiment: Desktop Profiler kinase panel, SRC; conditions: 10 micromolar concentration of the compound; read-out: Percent Inhibition SRC
T8 construct: purchased Caliper Life Sciences
T8 sequence (P12931 whole entry, species assumed): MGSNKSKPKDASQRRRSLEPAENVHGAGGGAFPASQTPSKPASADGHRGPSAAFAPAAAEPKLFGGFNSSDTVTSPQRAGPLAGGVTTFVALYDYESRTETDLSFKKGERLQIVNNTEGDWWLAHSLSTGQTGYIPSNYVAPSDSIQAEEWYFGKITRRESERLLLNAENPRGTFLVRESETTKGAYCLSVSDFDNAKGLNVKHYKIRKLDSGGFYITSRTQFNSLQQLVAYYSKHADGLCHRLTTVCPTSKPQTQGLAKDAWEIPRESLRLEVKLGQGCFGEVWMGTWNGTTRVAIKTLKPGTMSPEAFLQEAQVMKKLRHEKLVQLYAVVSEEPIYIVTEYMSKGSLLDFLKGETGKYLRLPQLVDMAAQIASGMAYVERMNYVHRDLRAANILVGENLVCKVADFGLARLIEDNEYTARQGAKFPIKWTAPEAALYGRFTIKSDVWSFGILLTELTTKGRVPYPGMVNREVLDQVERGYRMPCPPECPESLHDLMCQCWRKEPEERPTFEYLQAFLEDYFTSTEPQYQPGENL
Protocol: as §1, §2, §3, §4

RSK1 = molecular target: T9, RSK1 (Homo sapiens, UniProt Q15418); experiment: Desktop Profiler kinase panel, RSK1; conditions: 10 micromolar concentration of the compound; read-out: Percent Inhibition RSK1
T9 construct: purchased Caliper Life Sciences
T9 sequence (Q15418 whole entry, species assumed): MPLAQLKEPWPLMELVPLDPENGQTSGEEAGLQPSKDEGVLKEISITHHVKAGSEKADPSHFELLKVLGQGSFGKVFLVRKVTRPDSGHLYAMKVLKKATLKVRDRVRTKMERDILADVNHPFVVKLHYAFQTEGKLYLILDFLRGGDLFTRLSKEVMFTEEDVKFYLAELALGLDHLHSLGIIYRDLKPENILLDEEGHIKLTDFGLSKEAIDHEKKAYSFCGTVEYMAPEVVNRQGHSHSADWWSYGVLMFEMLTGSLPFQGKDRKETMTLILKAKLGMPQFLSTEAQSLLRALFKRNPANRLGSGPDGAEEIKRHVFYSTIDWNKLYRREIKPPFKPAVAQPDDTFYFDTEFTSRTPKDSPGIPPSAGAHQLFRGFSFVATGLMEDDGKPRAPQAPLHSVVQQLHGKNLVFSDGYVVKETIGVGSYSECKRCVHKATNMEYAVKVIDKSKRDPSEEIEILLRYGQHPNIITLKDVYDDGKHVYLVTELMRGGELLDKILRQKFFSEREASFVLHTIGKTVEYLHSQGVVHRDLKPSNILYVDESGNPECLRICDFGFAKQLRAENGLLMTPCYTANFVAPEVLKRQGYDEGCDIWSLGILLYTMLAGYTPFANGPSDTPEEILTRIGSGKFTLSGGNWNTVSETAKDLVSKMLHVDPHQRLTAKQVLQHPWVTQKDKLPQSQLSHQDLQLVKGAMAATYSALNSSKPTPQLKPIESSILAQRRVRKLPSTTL
Protocol: as §1, §2, §3, §4

GSK3b = molecular target: T10, GSK3b (Homo sapiens, UniProt P49841); experiment: Desktop Profiler kinase panel, GSK3b; conditions: 10 micromolar concentration of the compound; read-out: Percent Inhibition GSK3b
T10 construct: purchased Caliper Life Sciences
T10 sequence (P49841 whole entry, species assumed): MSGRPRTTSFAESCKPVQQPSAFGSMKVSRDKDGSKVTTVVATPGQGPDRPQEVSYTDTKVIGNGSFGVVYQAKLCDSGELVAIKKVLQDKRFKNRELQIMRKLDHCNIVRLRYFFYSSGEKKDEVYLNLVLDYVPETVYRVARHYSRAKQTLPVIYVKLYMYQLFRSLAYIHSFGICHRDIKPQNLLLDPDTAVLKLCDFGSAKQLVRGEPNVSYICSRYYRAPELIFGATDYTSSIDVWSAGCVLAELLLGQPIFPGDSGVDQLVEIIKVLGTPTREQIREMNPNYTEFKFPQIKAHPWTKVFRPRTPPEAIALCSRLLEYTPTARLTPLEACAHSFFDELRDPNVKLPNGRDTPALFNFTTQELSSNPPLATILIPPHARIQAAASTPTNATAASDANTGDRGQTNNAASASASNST
Protocol: as §1, §2, §3, §4

inhibition at 10 µM (AurA) | inhibition at 10 µM (AKT2) | inhibition at 10 µM (CHK2) | inhibition at 10 µM (ABL) | inhibition at 10 µM (CK1d) | inhibition at 10 µM (PKD2) | inhibition at 10 µM (FYN) | inhibition at 10 µM (SRC) | inhibition at 10 µM (RSK1) | inhibition at 10 µM (GSK3b) | SMILES
> 90% | > 90% | 50 to 70% | > 90% | 70 to 90% | > 90% | 70 to 90% | 70 to 90% | 50 to 70% | 70 to 90% | O=c1[nH]c2ncccc2c2cc(Nc3cccc(F)c3)ccc12 [Example 31, 9-(3-Fluoro-phenylamino)-5H-benzo[c][1,8]naphthyridin-6-one]
> 90% | > 90% | 70 to 90% | > 90% | 70 to 90% | > 90% | > 90% | > 90% | 70 to 90% | > 90% | CC(=O)Nc1ccc(Oc2ccc3c(=O)[nH]c4ncccc4c3c2)cc1 [Example 81, N-[4-(6-Oxo-5,6-dihydro-benzo[c][1,8]naphthyridin-9-yloxy)-phenyl]-acetamide]
> 90% | 50 to 70% | 50 to 70% | 70 to 90% | 50 to 70% | 50 to 70% | > 90% | 50 to 70% | 50 to 70% | 70 to 90% | NC(=O)c1ccc(Oc2ccc3c(=O)[nH]c4ncccc4c3c2)cc1 [Example 82]
